Assay results taken from ChEMBL document CHEMBL1201862, “PubChem BioAssay data set” (2004).
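Growth conditions: 96-well plates. Treatment: test compound, 48 hours, 5 concentrations. Analysis: linear interpolation between bracketing concentrations; unreached endpoints set to highest concentration. At the GI50, growth is halved.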 Activity calls are given as the source filed them. Cut-off read from the data, not from the text of the source: active = GI50 up to about 1.1 µM and inactive = higher.

Experiments:
Assay in all cases: inhibition of tumour cell growth, NCI panel, 48 h
HL-60 = tested on: HL-60
IGROV-1 = tested on: IGROV-1
K562 = tested on: K562
SF-539 = tested on: SF-539
HCT-15 = tested on: HCT-15
Malme-3M = tested on: Malme-3M
SR = tested on: SR
NCI-H522 = tested on: NCI-H522
UACC-257 = tested on: UACC-257
MDA-N = tested on: MDA-N
SW-620 = tested on: SW-620
SK-OV-3 = tested on: SK-OV-3
NCI-H460 = tested on: NCI-H460
MOLT-4 = tested on: MOLT-4
UO-31 = tested on: UO-31
T47D = tested on: T47D
A549 = tested on: A549
SNB-75 = tested on: SNB-75
CCRF-CEM = tested on: CCRF-CEM
MDA-MB-231 = tested on: MDA-MB-231
786-0 = tested on: 786-0
EKVX = tested on: EKVX
SF-295 = tested on: SF-295
HT-29 = tested on: HT-29
TK-10 = tested on: TK-10
MDA-MB-435 = tested on: MDA-MB-435
COLO 205 = tested on: COLO 205
SK-MEL-5 = tested on: SK-MEL-5
U-251 = tested on: U-251
SNB-19 = tested on: SNB-19
OVCAR-8 = tested on: OVCAR-8
SK-MEL-28 = tested on: SK-MEL-28
LOX IMVI = tested on: LOX IMVI
SF-268 = tested on: SF-268
RPMI-8226 = tested on: RPMI-8226
NCI-H23 = tested on: NCI-H23
DU-145 = tested on: DU-145
OVCAR-5 = tested on: OVCAR-5
NCI-H226 = tested on: NCI-H226
CAKI-1 = tested on: CAKI-1
A498 = tested on: A498
SN12C = tested on: SN12C
NCI/ADR-RES = tested on: NCI/ADR-RES
PC-3 = tested on: PC-3
HCT-116 = tested on: HCT-116
MCF7 = tested on: MCF7
ACHN = tested on: ACHN
OVCAR-4 = tested on: OVCAR-4
RXF 393 = tested on: RXF 393
SK-MEL-2 = tested on: SK-MEL-2
HOP-92 = tested on: HOP-92
Hs-578T = tested on: Hs-578T
BT-549 = tested on: BT-549
M14 = tested on: M14
HOP-62 = tested on: HOP-62
OVCAR-3 = tested on: OVCAR-3
KM12 = tested on: KM12
UACC-62 = tested on: UACC-62
HCC 2998 = tested on: HCC 2998

Structure (SMILES): COc1ccc(/C=N/c2ccc(-c3nc4ccccc4[nH]3)cc2)cc1OC
- GI50 (HL-60): 63.7 µM (inactive)
- GI50 (IGROV-1): 49.3 µM (inactive)
- GI50 (K562): > 100 µM (inactive)
- GI50 (SF-539): > 100 µM (inactive)
- GI50 (HCT-15): > 100 µM
- GI50 (Malme-3M): > 100 µM (inactive)
- GI50 (SR): 81.7 µM (inactive)
- GI50 (NCI-H522): > 100 µM (inactive)
- GI50 (UACC-257): > 100 µM (inactive)
- GI50 (MDA-N): > 100 µM (inactive)
- GI50 (SW-620): > 100 µM (inactive)
- GI50 (SK-OV-3): > 100 µM (inactive)
- GI50 (NCI-H460): > 100 µM (inactive)
- GI50 (MOLT-4): > 100 µM (inactive)
- GI50 (UO-31): > 100 µM (inactive)
- GI50 (T47D): > 100 µM (inactive)
- GI50 (A549): > 100 µM (inactive)
- GI50 (SNB-75): 22.3 µM (inactive)
- GI50 (CCRF-CEM): > 100 µM (inactive)
- GI50 (MDA-MB-231): 68.4 µM (inactive)
- GI50 (786-0): > 100 µM (inactive)
- GI50 (EKVX): > 100 µM (inactive)
- GI50 (SF-295): > 100 µM (inactive)
- GI50 (HT-29): > 100 µM (inactive)
- GI50 (TK-10): > 100 µM (inactive)
- GI50 (MDA-MB-435): > 100 µM (inactive)
- GI50 (COLO 205): > 100 µM (inactive)
- GI50 (SK-MEL-5): > 100 µM (inactive)
- GI50 (U-251): 42.5 µM (inactive)
- GI50 (SNB-19): > 100 µM (inactive)
- GI50 (OVCAR-8): 39.6 µM (inactive)
- GI50 (SK-MEL-28): > 100 µM (inactive)
- GI50 (LOX IMVI): > 100 µM (inactive)
- GI50 (SF-268): 80 µM (inactive)
- GI50 (RPMI-8226): > 100 µM (inactive)
- GI50 (NCI-H23): > 100 µM (inactive)
- GI50 (DU-145): > 100 µM (inactive)
- GI50 (OVCAR-5): > 100 µM (inactive)
- GI50 (NCI-H226): > 100 µM (inactive)
- GI50 (CAKI-1): > 100 µM (inactive)
- GI50 (A498): > 100 µM (inactive)
- GI50 (SN12C): > 100 µM (inactive)
- GI50 (NCI/ADR-RES): > 100 µM (inactive)
- GI50 (PC-3): > 100 µM (inactive)
- GI50 (HCT-116): > 100 µM (inactive)
- GI50 (MCF7): 25.9 µM (inactive)
- GI50 (ACHN): > 100 µM (inactive)
- GI50 (OVCAR-4): > 100 µM (inactive)
- GI50 (RXF 393): 97.9 µM (inactive)
- GI50 (SK-MEL-2): > 100 µM (inactive)
- GI50 (HOP-92): 47 µM (inactive)
- GI50 (Hs-578T): > 100 µM (inactive)
- GI50 (BT-549): 89.1 µM (inactive)
- GI50 (M14): > 100 µM (inactive)
- GI50 (HOP-62): > 100 µM (inactive)
- GI50 (OVCAR-3): > 100 µM (inactive)
- GI50 (KM12): > 100 µM (inactive)

Structure (SMILES): COc1cc2c(cc1OC)[C@@](C)(C(O)C(O)C(C)(C)O)NCC2 (stereo partly specified)
- GI50 (HL-60): > 100 µM (inactive)
- GI50 (IGROV-1): > 100 µM (inactive)
- GI50 (K562): > 100 µM (inactive)
- GI50 (SF-539): > 100 µM (inactive)
- GI50 (HCT-15): > 100 µM
- GI50 (Malme-3M): > 100 µM (inactive)
- GI50 (SR): > 100 µM (inactive)
- GI50 (NCI-H522): > 100 µM (inactive)
- GI50 (UACC-257): > 100 µM (inactive)
- GI50 (MDA-N): > 100 µM (inactive)
- GI50 (SK-OV-3): > 100 µM (inactive)
- GI50 (MOLT-4): > 100 µM (inactive)
- GI50 (UO-31): > 100 µM (inactive)
- GI50 (T47D): > 100 µM (inactive)
- GI50 (A549): > 100 µM (inactive)
- GI50 (SNB-75): > 100 µM (inactive)
- GI50 (CCRF-CEM): > 100 µM (inactive)
- GI50 (MDA-MB-231): > 100 µM (inactive)
- GI50 (786-0): > 100 µM (inactive)
- GI50 (EKVX): > 100 µM (inactive)
- GI50 (SF-295): > 100 µM (inactive)
- GI50 (HT-29): > 100 µM (inactive)
- GI50 (TK-10): > 100 µM (inactive)
- GI50 (MDA-MB-435): > 100 µM (inactive)
- GI50 (COLO 205): > 100 µM (inactive)
- GI50 (SK-MEL-5): > 100 µM (inactive)
- GI50 (U-251): > 100 µM (inactive)
- GI50 (SNB-19): > 100 µM (inactive)
- GI50 (OVCAR-8): > 100 µM (inactive)
- GI50 (SK-MEL-28): > 100 µM (inactive)
- GI50 (LOX IMVI): > 100 µM (inactive)
- GI50 (SF-268): > 100 µM (inactive)
- GI50 (RPMI-8226): > 100 µM (inactive)
- GI50 (UACC-62): > 100 µM (inactive)
- GI50 (NCI-H23): > 100 µM (inactive)
- GI50 (DU-145): > 100 µM (inactive)
- GI50 (OVCAR-5): > 100 µM (inactive)
- GI50 (NCI-H226): > 100 µM (inactive)
- GI50 (CAKI-1): > 100 µM (inactive)
- GI50 (A498): > 100 µM (inactive)
- GI50 (SN12C): > 100 µM (inactive)
- GI50 (NCI/ADR-RES): > 100 µM (inactive)
- GI50 (PC-3): > 100 µM (inactive)
- GI50 (HCT-116): > 100 µM (inactive)
- GI50 (MCF7): > 100 µM (inactive)
- GI50 (ACHN): > 100 µM (inactive)
- GI50 (OVCAR-4): > 100 µM (inactive)
- GI50 (RXF 393): > 100 µM (inactive)
- GI50 (SK-MEL-2): > 100 µM (inactive)
- GI50 (HOP-92): > 100 µM (inactive)
- GI50 (Hs-578T): > 100 µM (inactive)
- GI50 (BT-549): > 100 µM (inactive)
- GI50 (M14): > 100 µM (inactive)
- GI50 (HOP-62): > 100 µM (inactive)
- GI50 (OVCAR-3): > 100 µM (inactive)

Structure (SMILES): C1=C\SS/C=C\SS/1
- GI50 (HL-60): 7.57 µM (inactive)
- GI50 (IGROV-1): 16.6 µM (inactive)
- GI50 (K562): 26.1 µM (inactive)
- GI50 (HCT-15): 14.4 µM
- GI50 (SR): > 100 µM (inactive)
- GI50 (UACC-257): 38.9 µM (inactive)
- GI50 (MDA-N): 40.3 µM (inactive)
- GI50 (SW-620): 33.1 µM (inactive)
- GI50 (SK-OV-3): > 100 µM (inactive)
- GI50 (NCI-H460): 23.9 µM (inactive)
- GI50 (MOLT-4): 12.9 µM (inactive)
- GI50 (UO-31): 22.2 µM (inactive)
- GI50 (T47D): 55.1 µM (inactive)
- GI50 (A549): 48.1 µM (inactive)
- GI50 (CCRF-CEM): 2.28 µM (inactive)
- GI50 (MDA-MB-231): 6.53 µM (inactive)
- GI50 (786-0): 17 µM (inactive)
- GI50 (EKVX): 46.8 µM (inactive)
- GI50 (SF-295): 58.1 µM (inactive)
- GI50 (HT-29): 15.6 µM (inactive)
- GI50 (TK-10): 40.7 µM (inactive)
- GI50 (MDA-MB-435): 57.5 µM (inactive)
- GI50 (COLO 205): 39.3 µM (inactive)
- GI50 (SK-MEL-5): 24.5 µM (inactive)
- GI50 (U-251): 34.8 µM (inactive)
- GI50 (SNB-19): 32.3 µM (inactive)
- GI50 (OVCAR-8): 17.1 µM (inactive)
- GI50 (SK-MEL-28): > 100 µM (inactive)
- GI50 (LOX IMVI): 29 µM (inactive)
- GI50 (SF-268): 40.5 µM (inactive)
- GI50 (RPMI-8226): 28.9 µM (inactive)
- GI50 (UACC-62): 52.4 µM (inactive)
- GI50 (NCI-H23): 40.9 µM (inactive)
- GI50 (DU-145): > 100 µM (inactive)
- GI50 (OVCAR-5): 35.3 µM (inactive)
- GI50 (NCI-H226): > 100 µM (inactive)
- GI50 (CAKI-1): > 10 µM (inactive)
- GI50 (HCC 2998): 53.3 µM (inactive)
- GI50 (A498): > 100 µM (inactive)
- GI50 (SN12C): 61.9 µM (inactive)
- GI50 (NCI/ADR-RES): 46 µM (inactive)
- GI50 (PC-3): 38.5 µM (inactive)
- GI50 (HCT-116): 34.4 µM (inactive)
- GI50 (MCF7): 15.9 µM (inactive)
- GI50 (ACHN): 27.9 µM (inactive)
- GI50 (OVCAR-4): 46.8 µM (inactive)
- GI50 (RXF 393): 32.2 µM (inactive)
- GI50 (SK-MEL-2): 48.4 µM (inactive)
- GI50 (HOP-92): 24.3 µM (inactive)
- GI50 (Hs-578T): > 100 µM (inactive)
- GI50 (BT-549): 97.1 µM (inactive)
- GI50 (M14): 29.5 µM (inactive)
- GI50 (HOP-62): 54.6 µM (inactive)
- GI50 (KM12): 36 µM (inactive)
